In brackets after ≈: the same amount, converted by molar mass.

In series [1] the target is recombinant human prostanoid EP2 receptor (Homo sapiens (Human), UniProt P43116). Nature of the series: Human prostanoid EP2 receptor cellular functional assay (cAMP, HTRF). It counts as cell-based. The settings on record: for EC50: CHO cells expressing recombinant human EP2, cAMP by HTRF, 30 min, 37° C., read-out: In vitro functional assay EP2 (h) EC50; for In vitro functional assay EP2 (h) % response: percent of control specific agonist response (10 μM PGE2). The method, then: Test 1.2: Human Prostanoid EP2 Receptor Cellular Functional Assay
Human CHO cells expressing the recombinant human prostanoid EP2 receptor were suspended in assay medium (HBSS buffer (Invitrogen) containing 20 mM HEPES (pH7.4) and 500 μM isobutyl-methylxanthine IBMX) and plated out to yield approximately 1×10^4 cells/well in a 96-well. Following this, cells were incubated with agonists for 30 min in the presence of the test compounds. For stimulated control measurements, separate assay wells contain 10 μM PGE2 (control specific agonist). All incubations were carried out at 37° C. in a 5% CO2 atmosphere. Following incubation, the amount of cAMP in each well was determined by HTRF method. The cells are lysed and the fluorescence acceptor (D2-labeled cAMP) and fluorescence donor (anti-cAMP antibody labeled with europium cryptate) are added. After 60 min at room temperature, the fluorescence transfer is measured at λ ex=337 nm and λ em=620 and 665 nm using a microplate reader (Rubystar, BMG).
The cAMP concentration is determined by dividing the signal measured at 665 nm by that measured at 620 nm (ratio).
The standard reference agonist PGE2 was tested at several concentrations to generate a concentration-response curve to determined EC50.
(§1) Analysis and Expression of Results
The results are expressed as a percent of control specific agonist response ((measured specific response/control specific agonist response)×100) obtained in the presence of the test compounds. The EC50 values (concentration producing a half-maximal specific response) were determined by non-linear regression analysis of the concentration-response curves generated with mean replicate values using Hill equation curve fitting (Y=D+[(A−D)/(1+(C/C50)nH)], where Y=specific response, D=minimum specific response, A=maximum specific response, C=compound concentration, and C50=EC50 and nH=slope factor). This analysis was performed using a software developed at Cerep (Hill software) and validated by comparison with data generated by the commercial software SigmaPlot® 4.0 for Windows® (© 1997 by SPSS Inc.).
A general note: TR-FRET usually uses a lanthanide donor and a delayed reading to cut background.

For series [2], the target named is recombinant human prostanoid EP4 receptor (Homo sapiens (Human), UniProt P35408). Description: Human prostanoid EP4 receptor binding assay ([3H]PGE2 displacement). To be noted: HEK-293(T) membranes, 0.5 nM [3H]PGE2, 120 min at 22° C.; NC: not calculable; read-out: In vitro potency EP4 (h) IC50. The method, then:
Test 1.1: Human Prostanoid EP4 Receptor Binding Assay
Cell membrane homogenate from Human embryonic kidney HEK-293(T) cells expressing recombinant human prostanoid EP4 receptor was used to perform Prostanoid receptor radioligand binding assays.
The competition reaction was initiated by incubation of membrane protein homogenate (20 μg protein) for 120 min at 22° C. with 0.5 nM [^3H]PGE2 ligand in the absence or presence of the test compound in a buffer containing 10 mM MES/KOH (pH 6.0), 10 mM MgCl2 and 1 mM EDTA.
Non-specific binding was determined in the presence of 10 μM PGE2 (the corresponding non-radioactive prostanoid). Affinity of the compound binding to hEP4 receptor was measured by displacement of the radiolabeled ligand in the presence of varying doses of tested compound.
Incubations were terminated by rapid filtration under vacuum through glass fiber filters (GF/B, Packard) presoaked with 0.3% PEI and washed several times with ice-cold 50 mM Tris-HCl using a 96-sample cell harvester (Unifilter, Packard).
The filters were dried and the residual radioactivity bound to the individual filters determined with addition of scintillation cocktail (Microscint 0, Packard) by a scintillation counter (Topcount, Packard).
The results were expressed as a percent inhibition of the control radioligand specific binding.
The standard reference compound PGE2, was tested in at several concentrations to obtain a competition curve to determined IC50.
as §1
The specific ligand binding to the receptors is defined as the difference between the total binding and the nonspecific binding determined in the presence of an excess of unlabelled ligand. The results are expressed as a percent of control specific binding ((measured specific binding/control specific binding)×100) obtained in the presence of the test compounds. The IC50 values (concentration causing a half-maximal inhibition of control specific binding) and Hill coefficients (nH) were determined by non-linear regression analysis of the competition curves generated with mean replicate values using Hill equation curve fitting (Y=D+[(A−D)/(1+(C/C50)nH)], where Y=specific binding, D=minimum specific binding, A=maximum specific binding, C=compound concentration, C50=IC50, and nH=slope factor). This analysis was performed using a software developed at Cerep (Hill software) and validated by comparison with data generated by the commercial software SigmaPlot® 4.0 for Windows® (© 1997 by SPSS Inc.). The inhibition constants (Ki) were calculated using the Cheng Prusoff equation (Ki=IC50/(1+(L/KD)), where L=concentration of radioligand in the assay, and KD=affinity of the radioligand for the receptor). A scatchard plot is used to determine the Kd.

Series [3] can be described thus: Solubility at equilibrium. The series is classed as physicochemical. To be noted: thermodynamic from solid; in the diluent, room temperature, n=1, HPLC quantification. The method, then: Solubility of the test materials was evaluated on n=1 trial, following the procedure below:
2.5 mg of each compound for solubility testing were dissolved in 5 mL of the diluent, an initial concentration of 500 ug/mL. The mixture was first vortexed for 15 seconds to allow a good wetting of the API, then sonicated for 5 minutes to promote solubilisation. The vortex/sonication cycle was repeated 3 times. The suspension was stirred at room temperature using a magnetic stirrer at 300 rpm. This mixture is observed at 4 h, 24 h and 48 h to determine if the test compound has dissolved. At each time point if the compound is completely solubilised a further 5 mg of the test compound is added and the process repeated.
When no more test compound will dissolve in the diluent, an aliquot of 0.5 mL of the suspension was withdrawn and centrifuged 3×2 min at 13400 rpm. The supernatant for HPLC quantification was filtered using 0.2 μm Pall Aerodisc Nylon 13 mm membrane and quantified by comparing to the calibration curve, using the method: column: Nucleodur C18 ISIS 3 μm 4.6×125 mm, Mobile Phase (CH3COOH 0.05% in H2O and ACN), Flow rate: 1 ml/min, Wavelength: λ=240 nm (IIa and IIc) or […] (IId), Injected volume: 10 μl, Gradient of concentration: from 30% B to 100% B in 6 min.

Series [4] deals with Laser-Induced Hypertensive Cynomolgus Monkey. Nature of the series: Intraocular pressure in laser-induced hypertensive cynomolgus monkey. The series is classed as in vivo. To be noted: 0.01% topical, 50 μl drop to glaucomatous eye once daily for 5 days; FIG. 1. The method, then:
Laser-Induced Hypertensive Cynomolgus Monkey
Ten adult female cynomolgus monkeys, each weighing 3-5 kg, in which glaucoma had been induced unilaterally by diode laser photocoagulation of the mid-trabecular meshwork, were used in this study.
Intraocular pressure (IOP) was measured at 0 hr (before drug administration) and then hourly until 6 hrs after drug administration on one baseline day, one vehicle-treatment day, and treatment days 1, 3, and 5 with 0.01% of compound II(d).
Compound II(d) was tested in two groups of 4 monkeys for a total of 8 monkeys. Following one baseline day (untreated) and one vehicle-treatment day (50 μl (25 μl×2), drop of vehicle to the glaucomatous eye at 9:30 (a 50 μl drop (25 μl×2) of compound (II(d)) were topically applied to the glaucomatous eye only once daily at 9:30 am for 5 consecutive days.
Slit-lamp examination for the detection of aqueous humor flare and cells was performed in a dark room before drug administration and at 1, 3 and 5 hrs after dosing on baseline day and at the same times on treatment days 1, 3 and 5.
Two-tailed paired and unpaired t test and the ANOVA test were used for statistical analysis.

Chain of recombinant human prostanoid EP4 receptor (P35408 whole entry): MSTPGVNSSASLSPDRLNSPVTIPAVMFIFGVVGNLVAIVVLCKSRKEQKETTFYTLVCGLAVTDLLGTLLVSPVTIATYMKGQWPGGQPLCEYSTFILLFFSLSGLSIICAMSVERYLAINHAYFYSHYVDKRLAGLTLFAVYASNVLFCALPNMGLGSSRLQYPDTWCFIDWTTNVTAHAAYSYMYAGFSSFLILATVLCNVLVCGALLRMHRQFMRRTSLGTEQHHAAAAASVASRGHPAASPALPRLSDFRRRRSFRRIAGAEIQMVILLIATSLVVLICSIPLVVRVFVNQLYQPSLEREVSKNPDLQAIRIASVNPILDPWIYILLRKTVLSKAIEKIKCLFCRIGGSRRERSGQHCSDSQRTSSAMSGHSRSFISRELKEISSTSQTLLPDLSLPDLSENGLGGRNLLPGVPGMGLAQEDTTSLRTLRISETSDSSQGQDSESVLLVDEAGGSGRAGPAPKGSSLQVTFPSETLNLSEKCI
Chain of recombinant human prostanoid EP2 receptor (P43116 whole entry): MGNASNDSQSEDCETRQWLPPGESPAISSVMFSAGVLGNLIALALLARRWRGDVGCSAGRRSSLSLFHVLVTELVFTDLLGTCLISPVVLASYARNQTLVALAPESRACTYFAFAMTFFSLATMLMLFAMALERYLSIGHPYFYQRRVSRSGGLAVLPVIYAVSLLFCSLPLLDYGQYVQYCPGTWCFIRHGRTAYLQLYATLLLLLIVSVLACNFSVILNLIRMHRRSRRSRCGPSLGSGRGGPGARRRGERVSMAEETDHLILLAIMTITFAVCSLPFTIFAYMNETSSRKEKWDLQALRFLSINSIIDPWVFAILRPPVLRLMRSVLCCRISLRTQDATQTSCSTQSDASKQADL

Regarding `Cc1ccc(OCC(=O)O)c(C)c1NCc1cc(-c2cccc(F)c2)cc(F)c1C` [I(aw), 2-[3-[[3-fluoro-5-(3-fluorophenyl)-2-methyl-phenyl]methylamino]-2,4-dimethyl-phenoxy]acetic acid], in series [1], the concentration for a half-maximal effect (EC50) was found to be 3 nM and the “In vitro functional assay EP2 (h) % response” value is reported as 80%. In addition, in series [2], the 50% inhibitory concentration (IC50) is > 300 nM.

For `O=C(O)COc1ccc(Cl)c(NCc2cc(-c3cccc(F)c3)ccc2F)c1F` [I(k), 2-[4-Chloro-2-fluoro-3-[[2-fluoro-5-(3-fluorophenyl)phenyl]methylamino]phenoxy]acetic acid], in series [1], the EC50 was 73 nM and the “In vitro functional assay EP2 (h) % response” value is on record as 77%. Further, in series [2], the 50% inhibitory concentration (IC50) was > 300 nM.

Turning to `O=C(O)COc1ccc(Cl)c(NCc2cc(-c3cccc(F)c3)ccc2F)c1Cl` [I(r), 2-[2,4-Dichloro-3-[[2-fluoro-5-(3-fluorophenyl)phenyl]methylamino]phenoxy]acetic acid], in series [1], the concentration giving a half-maximal response (EC50) worked out at 45 nM and the “In vitro functional assay EP2 (h) % response” value amounted to 78%. Besides, the IC50 in series [2] is > 300 nM.

Regarding `CCOC(=O)COc1ccc(F)c(NCc2cc(-c3cccc(F)c3)ccc2F)c1F` [II(a), ethyl 2-[2,4-difluoro-3-[[2-fluoro-5-(3-fluorophenyl)phenyl]methylamino]phenoxy]acetate], the concentration in solution in series [3] (solubility) was 8120 µg/mL (≈ 18.7 mM).

Consider `COC(=O)COc1ccc(F)c(NCc2cc(-c3cccc(F)c3)ccc2F)c1F` [II(c), Methyl 2-[2,4-difluoro-3-[[2-fluoro-5-(3-fluorophenyl)phenyl]methylamino]phenoxy]acetate], for which the concentration in solution in series [3] (solubility) was 6780 µg/mL (≈ 16.2 mM).

`CC(C)OC(=O)COc1ccc(F)c(NCc2cc(-c3cccc(F)c3)ccc2F)c1F` [II(d), Isopropyl 2-[2,4-difluoro-3-[[2-fluoro-5-(3-fluorophenyl)phenyl]methylamino]phenoxy]acetate]: in series [1], the EC50 was > 300 nM and the “In vitro functional assay EP2 (h) % response” value was found to be 44%. Besides, the solubility in series [3] stood at 711 µg/mL (≈ 1.59 mM). In series [4], the “overall IOP reduction” value came out at 22%.

On to `O=C(O)COc1cccc(CN(Cc2ccc(-n3cccn3)cc2)S(=O)(=O)c2cccnc2)c1` [PF-04217329, taprenepag, reference compound], for which, in series [3], the concentration in solution (solubility) came to 542 µg/mL (≈ 1.13 mM).

The term EC50 denotes the midpoint of the concentration-response curve. The IC50 is the concentration at which inhibition is half-maximal. Broadly, the solubility is the concentration that dissolves in the medium under given conditions.

Source of the values: patent publication US9249085B2, “Aniline derivatives, their preparation and their therapeutic application” (FOVEA PHARMACEUTICALS, priority 2011, dated 2016).
